ChEMBL document CHEMBL5352496, “Design, synthesis and biological activity of hybrid antifungals derived from fluconazole and mebendazole” (Eur J Med Chem, 2023)
Converted amounts (≈) assume the structure as drawn.

Assays:
Candida tropicalis = assay: Antifungal activity against Candida tropicalis FDC 138 incubated for 24 hrs by broth microdilution method; format: functional
Candida albicans [1] = assay: Antifungal activity against Candida albicans FDC 151 incubated for 24 hrs by broth microdilution method; format: functional
Candida albicans [2] = assay: Antifungal activity against Candida albicans CMRC 192 incubated for 24 hrs by broth microdilution method; format: functional
Nakaseomyces glabratus [3] = assay: Antifungal activity against Candida glabrata FDC 192 incubated for 24 hrs by broth microdilution method; format: functional
Nakaseomyces glabratus [4] = assay: Antifungal activity against Candida glabrata CMRC 89 incubated for 24 hrs by broth microdilution method; format: functional
Candida parapsilosis = assay: Antifungal activity against Candida parapsilosis ATCC 22019 incubated for 24 hrs by broth microdilution method; format: functional; settings: Lodderomyces parapsilosis
Candida albicans [5] = assay: Antifungal activity against Candida albicans CMRC 19 incubated for 24 hrs by broth microdilution method; format: functional
Cryptococcus neoformans = assay: Antifungal activity against Cryptococcus neoformans IFRC 340 incubated for 24 hrs by broth microdilution method; format: functional
BEAS-2B = assay: Cytotoxicity against human BEAS-2B cells assessed as cell viability at 25 ug/ml incubated for 48 hrs by MTT assay; format: toxicity, cell-based; settings: dose 25 µg/ml
HepG2 = assay: Cytotoxicity against human HepG2 cells assessed as cell viability at 25 ug/ml incubated for 48 hrs by MTT assay; format: toxicity, cell-based; settings: hepg2, 48 h, dose 25 µg/ml

Compound	MIC (Candida tropicalis)	MIC (Candida albicans [1])	MIC (Candida albicans [2])	MIC (Nakaseomyces glabratus [3])	MIC (Nakaseomyces glabratus [4])	MIC (Candida parapsilosis)	MIC (Candida albicans [5])	MIC (Cryptococcus neoformans)	Activity (BEAS-2B)	Activity (HepG2)
O=C(c1ccccc1)c1ccc2[nH]c(SCC(O)(Cn3cncn3)c3ccc(Cl)cc3Cl)nc2c1 (stereo not drawn)	0.125 µg/mL (≈ 0.238 µM)	0.063 µg/mL (≈ 0.12 µM)	1 µg/mL (≈ 1.91 µM)	1 µg/mL (≈ 1.91 µM)	2 µg/mL (≈ 3.81 µM)	2 µg/mL (≈ 3.81 µM)	0.5 µg/mL (≈ 0.953 µM)	1 µg/mL (≈ 1.91 µM)		
OC(CSc1nc2ccccc2[nH]1)(Cn1cncn1)c1ccc(F)cc1 (stereo not drawn)	< 0.063 µg/mL	0.063 µg/mL (≈ 0.171 µM)	0.25 µg/mL (≈ 0.677 µM)	0.125 µg/mL (≈ 0.338 µM)	1 µg/mL (≈ 2.71 µM)	< 0.063 µg/mL	0.125 µg/mL (≈ 0.338 µM)	0.125 µg/mL (≈ 0.338 µM)	Toxic	Toxic
O=C(c1ccccc1)c1ccc2[nH]c(SCC(O)(Cn3cncn3)c3ccc(F)cc3F)nc2c1 (stereo not drawn)	1 µg/mL (≈ 2.03 µM)	2 µg/mL (≈ 4.07 µM)	1 µg/mL (≈ 2.03 µM)	1 µg/mL (≈ 2.03 µM)	8 µg/mL (≈ 16.3 µM)	2 µg/mL (≈ 4.07 µM)	2 µg/mL (≈ 4.07 µM)	1 µg/mL (≈ 2.03 µM)		
O=C(c1ccccc1)c1ccc2[nH]c(SCC(O)(Cn3cncn3)c3ccc(Cl)cc3)nc2c1 (stereo not drawn)	< 0.063 µg/mL	< 0.063 µg/mL	0.5 µg/mL (≈ 1.02 µM)	0.125 µg/mL (≈ 0.255 µM)	1 µg/mL (≈ 2.04 µM)	< 0.063 µg/mL	0.5 µg/mL (≈ 1.02 µM)	0.125 µg/mL (≈ 0.255 µM)	Toxic	Toxic
OC(CSc1nc2ccccc2s1)(Cn1cncn1)c1ccccc1 (stereo not drawn)	16 µg/mL (≈ 43.4 µM)	32 µg/mL (≈ 86.8 µM)	16 µg/mL (≈ 43.4 µM)	32 µg/mL (≈ 86.8 µM)	32 µg/mL (≈ 86.8 µM)	8 µg/mL (≈ 21.7 µM)	16 µg/mL (≈ 43.4 µM)	16 µg/mL (≈ 43.4 µM)		
OC(Cn1cncn1)(Cn1cncn1)c1ccc(F)cc1F [FLUCONAZOLE]	0.25 µg/mL (≈ 0.816 µM)	0.5 µg/mL (≈ 1.63 µM)	0.25 µg/mL (≈ 0.816 µM)	1 µg/mL (≈ 3.27 µM)	2 µg/mL (≈ 6.53 µM)	0.5 µg/mL (≈ 1.63 µM)	0.25 µg/mL (≈ 0.816 µM)	0.5 µg/mL (≈ 1.63 µM)		
OC(CSc1nc2ccccc2[nH]1)(Cn1cncn1)c1ccccc1 (stereo not drawn)	32 µg/mL (≈ 91.1 µM)	> 64 µg/mL	> 64 µg/mL	> 64 µg/mL	16 µg/mL (≈ 45.5 µM)	32 µg/mL (≈ 91.1 µM)	> 64 µg/mL	> 64 µg/mL		
OC(CSc1nc2ccccc2s1)(Cn1cncn1)c1ccc(F)cc1F (stereo not drawn)	> 64 µg/mL	> 64 µg/mL	32 µg/mL (≈ 79.1 µM)	> 64 µg/mL	32 µg/mL (≈ 79.1 µM)	> 64 µg/mL	16 µg/mL (≈ 39.6 µM)	> 64 µg/mL		
OC(CSc1nc2ccccc2s1)(Cn1cncn1)c1ccc(F)cc1 (stereo not drawn)	16 µg/mL (≈ 41.4 µM)	> 64 µg/mL	16 µg/mL (≈ 41.4 µM)	> 64 µg/mL	8 µg/mL (≈ 20.7 µM)	16 µg/mL (≈ 41.4 µM)	8 µg/mL (≈ 20.7 µM)	32 µg/mL (≈ 82.8 µM)		
OC(CSc1nc2ccccc2[nH]1)(Cn1cncn1)c1ccc(Cl)cc1Cl (stereo not drawn)	8 µg/mL (≈ 19 µM)	8 µg/mL (≈ 19 µM)	8 µg/mL (≈ 19 µM)	16 µg/mL (≈ 38.1 µM)	16 µg/mL (≈ 38.1 µM)	8 µg/mL (≈ 19 µM)	8 µg/mL (≈ 19 µM)	8 µg/mL (≈ 19 µM)		
OC(CSc1nc2ccccc2[nH]1)(Cn1cncn1)c1ccc(Cl)cc1 (stereo not drawn)	8 µg/mL (≈ 20.7 µM)	4 µg/mL (≈ 10.4 µM)	8 µg/mL (≈ 20.7 µM)	16 µg/mL (≈ 41.5 µM)	16 µg/mL (≈ 41.5 µM)	16 µg/mL (≈ 41.5 µM)	8 µg/mL (≈ 20.7 µM)	16 µg/mL (≈ 41.5 µM)		
OC(c1ccccc1)c1ccc2[nH]c(SCC(O)(Cn3cncn3)c3ccccc3)nc2c1 (stereo not drawn)	2 µg/mL (≈ 4.37 µM)	2 µg/mL (≈ 4.37 µM)	8 µg/mL (≈ 17.5 µM)	8 µg/mL (≈ 17.5 µM)	16 µg/mL (≈ 35 µM)	4 µg/mL (≈ 8.74 µM)	8 µg/mL (≈ 17.5 µM)	8 µg/mL (≈ 17.5 µM)		
O=C(c1ccccc1)c1ccc2[nH]c(SCC(O)(Cn3cncn3)c3ccc(F)cc3)nc2c1 (stereo not drawn)	16 µg/mL (≈ 33.8 µM)	16 µg/mL (≈ 33.8 µM)	8 µg/mL (≈ 16.9 µM)	> 64 µg/mL	16 µg/mL (≈ 33.8 µM)	> 64 µg/mL	8 µg/mL (≈ 16.9 µM)	32 µg/mL (≈ 67.6 µM)		
O=C(c1ccccc1)c1ccc2[nH]c(SCC(O)(Cn3cncn3)c3ccccc3)nc2c1 (stereo not drawn)	8 µg/mL (≈ 17.6 µM)	8 µg/mL (≈ 17.6 µM)	4 µg/mL (≈ 8.78 µM)	4 µg/mL (≈ 8.78 µM)	8 µg/mL (≈ 17.6 µM)	2 µg/mL (≈ 4.39 µM)	4 µg/mL (≈ 8.78 µM)	2 µg/mL (≈ 4.39 µM)		
OC(CSc1nc2ccccc2s1)(Cn1cncn1)c1ccc(Cl)cc1Cl (stereo not drawn)	8 µg/mL (≈ 18.3 µM)	8 µg/mL (≈ 18.3 µM)	8 µg/mL (≈ 18.3 µM)	16 µg/mL (≈ 36.6 µM)	16 µg/mL (≈ 36.6 µM)	16 µg/mL (≈ 36.6 µM)	16 µg/mL (≈ 36.6 µM)	16 µg/mL (≈ 36.6 µM)		
O=[N+]([O-])c1ccc2[nH]c(SCC(O)(Cn3cncn3)c3ccc(F)cc3F)nc2c1 (stereo not drawn)	32 µg/mL (≈ 74 µM)	32 µg/mL (≈ 74 µM)	> 64 µg/mL	> 64 µg/mL	> 64 µg/mL	> 64 µg/mL	> 64 µg/mL	32 µg/mL (≈ 74 µM)		
OC(CSc1nc2ccccc2[nH]1)(Cn1cncn1)c1ccc(F)cc1F (stereo not drawn)	32 µg/mL (≈ 82.6 µM)	> 64 µg/mL	> 64 µg/mL	> 64 µg/mL	> 64 µg/mL	> 64 µg/mL	> 64 µg/mL	32 µg/mL (≈ 82.6 µM)		
OC(CSc1nc2ccccc2s1)(Cn1cncn1)c1ccc(Cl)cc1 (stereo not drawn)	4 µg/mL (≈ 9.93 µM)	8 µg/mL (≈ 19.9 µM)	4 µg/mL (≈ 9.93 µM)	8 µg/mL (≈ 19.9 µM)	2 µg/mL (≈ 4.96 µM)	8 µg/mL (≈ 19.9 µM)	4 µg/mL (≈ 9.93 µM)	4 µg/mL (≈ 9.93 µM)		
